Measurements: ChEMBL document CHEMBL1177820, “Diazinones as P2 replacements for pyrazole-based cathepsin S inhibitors” (Bioorg Med Chem Lett, 2010)

How the values were obtained:
[1] = Apparent permeability from apical to basolateral side in […] TC7 cells; type: ADME, cell-based; conditions: Caco-2
[2] = Apparent permeability from basolateral to apical side in […] TC7 cells; type: ADME, cell-based; conditions: Caco-2

| Compound | Papp A→B [1] [×10⁻⁶ cm/s] | Papp B→A [2] [×10⁻⁶ cm/s] |
| --- | --- | --- |
| Cn1c(=O)n(C2CCN(CCCn3nccc(-c4ccc(Cl)c(CNC(=O)c5ccc(F)cc5)c4)c3=O)CC2)c2cc(Cl)ccc21 | 1.3 | 1.5 |
| Cn1c(=O)n(C2CCN(CCCn3cncc(-c4ccc(Cl)c(CNC(=O)c5ccc(F)cc5)c4)c3=O)CC2)c2cc(Cl)ccc21 | 2.5 | 2.9 |
| Cn1c(=O)n(C2CCN(CCCn3ccnc(-c4ccc(Cl)c(CNC(=O)c5ccc(F)cc5)c4)c3=O)CC2)c2cc(Cl)ccc21 | 0.6 | 3.7 |
